Data as given in patent US20240025863A1, “SOS1 PROTEIN DEGRADERS, PHARMACEUTICAL COMPOSITIONS THEREOF, AND THEIR THERAPEUTIC APPLICATIONS” (BioTheryX, Inc., priority 2020, published 2024).

How the values were obtained:
Format in all cases: cell-based
Molm-13 cells = experiment: Inhibition of Molm-13 cells; settings: Homo sapiens; for inhibition at 1 µM: compound 1 μM, read-out: Inhibition of Molm-13 Cells, percentage of inhibition at 1 μM; for inhibition at 10 µM: compound 10 μM, read-out: Inhibition of Molm-13 Cells, percentage of inhibition at 10 μM
Lovo cells (G13D) = experiment: Cell viability assay (CellTiter-Glo), Lovo cells; settings: Homo sapiens, 72 h; Lovo cells, 3 days incubation, CellTiter-Glo luminescence; read-out: Inhibition of Cancerous Cells IC50 Lovo (G13D)
Outline: (§1)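 Each cell line is treated with compound for 3 days at 37 °C under 5% CO2 in its own medium containing 2.5% FBS. ATP-based CellTiter-Glo luminescence, measured after 10 min shaking, serves as the viability signal relative to DMSO control.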

SW480 cells (G12V) = experiment: Cell viability assay (CellTiter-Glo), SW480 cells; settings: Homo sapiens, 72 h; SW480 cells, 3 days incubation, CellTiter-Glo luminescence; read-out: Inhibition of Cancerous Cells IC50 SW480 (G12V)
Outline: as §1

SW48 cells (wt) = experiment: Cell viability assay (CellTiter-Glo), SW48 cells; settings: Homo sapiens, 72 h; SW48 cells, 3 days incubation, CellTiter-Glo luminescence; read-out: Inhibition of Cancerous Cells IC50 SW48 (wt)
Outline: as §1

H23 cells = experiment: Cell viability assay (CellTiter-Glo), H23 cells; settings: Homo sapiens, NCI-H23, 72 h; H23 cells, 3 days incubation, CellTiter-Glo luminescence; read-out: Inhibition of Cancerous Cells IC50 H23
Procedure: H358, H23, SW48, and AsPC-1 cells were cultured in RPMI 1640 media supplemented with 10% fetal bovine serum, streptomycin, and penicillin. Lovo and SW480 cells were cultured in DMEM media supplemented with 10% fetal bovine serum, streptomycin, and penicillin. The cell lines were plated in their respective medium supplemented with 2.5% fetal bovine serum, streptomycin, and penicillin. All cell lines were plated in white walled 96-well plates at 2,000 cells/well or 384-well plates at 500 cells/well, except Lovo, which were plated at 4,000 or 1,000 cells/well, respectively. The cells were incubated in DMSO (control) or a compound for 3 days at 37° C. under 5% CO2. A CELLTITER-GLO® reagent (100 μL) was then added to each well. After a 10 min incubation with shaking, luminescence was measured using an ENVISION® multimode plate reader.

H358 cells (G12C) = experiment: Cell viability assay (CellTiter-Glo), H358 cells; settings: Homo sapiens, NCI-H358, 72 h; H358 cells, 3 days incubation, CellTiter-Glo luminescence; read-out: Inhibition of Cancerous Cells IC50 H358 (G12C)
Outline: as §1

IC50 (Lovo cells (G13D)) [µM] | IC50 (SW480 cells (G12V)) [µM] | IC50 (SW48 cells (wt)) [µM] | IC50 (H358 cells (G12C)) [µM] | SMILES | inhibition at 1 µM (Molm-13 cells) [%] | inhibition at 10 µM (Molm-13 cells) [%] | IC50 (H23 cells) [µM]
 |  |  |  | COc1cc2c(N[C@H](C)c3cccc(Br)c3)nc(C)nc2cc1OCCCN1CCC(c2cc(F)cc3c2CN(C2CCC(=O)NC2=O)C3=O)CC1 (stereo partly drawn) [Compound A10, 3-(4-(1-(3-((4-(((R)-1-(3-Bromophenyl)ethyl)amino)-6-methoxy-2-methyl-quinazolin-7-yl)oxy)propyl)piperidin-4-yl)-6-fluoro-1-oxoisoindolin-2-yl)piperidine-2,6-dione] | 22 | 99 | 
6.6 | > 10 | > 10 | > 10 | CCOc1cc(C(C)(C)C)ccc1C1=N[C@@](C)(c2ccc(Cl)cc2)[C@@](C)(c2ccc(Cl)cc2)N1C(=O)N1CCN(CCC(=O)NCCCCCCCCCOc2cc3nc(C)nc(N[C@H](C)c4cccc(Br)c4)c3cc2OC)CC1 [Compound C7, N-(9-((4-(((R)-1-(3-Bromophenyl)ethyl)amino)-6-methoxy-2-methylquinazolin-7-yl)oxy)nonyl)-3-(4-((4S,5R)-2-(4-(tert-butyl)-2-ethoxyphenyl)-4,5-bis(4-chlorophenyl)-4,5-dimethyl-4,5-dihydro-1H-imidazole-1-carbonyl)piperazin-1-yl)propanamide] |  |  | > 10
0.54 | 1.4 | 1.1 | 2.8 | CCOc1cc(C(C)(C)C)ccc1C1=N[C@@](C)(c2ccc(Cl)cc2)[C@@](C)(c2ccc(Cl)cc2)N1C(=O)N1CCN(CCC(=O)NCCCCCOc2cc3nc(C)nc(N[C@H](C)c4cccc(Br)c4)c3cc2OC)CC1 [Compound C8, N-(5-((4-(((R)-1-(3-Bromophenyl)ethyl)amino)-6-methoxy-2-methylquinazolin-7-yl)oxy)pentyl)-3-(4-((4S,5R)-2-(4-(tert-butyl)-2-ethoxyphenyl)-4,5-bis(4-chlorophenyl)-4,5-dimethyl-4,5-dihydro-1H-imidazole-1-carbonyl)piperazin-1-yl)propanamide] |  |  | > 10
 |  |  |  | COc1cc2c(N[C@H](C)c3cccs3)nc(C)nc2cc1OCCCCCCCCC(=O)N[C@H](C(=O)N1C[C@H](O)C[C@H]1C(=O)NCc1ccc(-c2scnc2C)cc1)C(C)(C)C [Compound D5, (2S,4R)-4-Hydroxy-1-((S)-2-(9-((6-methoxy-2-methyl-4-(((R)-1-(thiophen-2-yl)ethyl)amino)quinazolin-7-yl)oxy)nonanamido)-3,3-dimethylbutanoyl)-N-(4-(4-methylthiazol-5-yl)benzyl)pyrrolidine-2-carboxamide] | 22 | 99 | 
2.2 | 2.8 | 3.6 | 4.1 | COc1cc2nc(C)nc(N[C@H](C)c3cccc(Br)c3)c2cc1OC [drawing 284, reference compound] |  |  | 4.8
 |  |  |  | COc1cc2nc(C)nc(N[C@H](C)c3cccc(Br)c3)c2cc1OC [drawing 287] | 17 | 91 | 
